Here are results for one substance from paper PMC6222781, “Structural Optimization of Foldamer-Dendrimer Conjugates as Multivalent Agents against the Toxic Effects of Amyloid Beta Oligomers” (Molecules : A Journal of Synthetic Chemistry and Natural …, 2018).

In assay [1] the test system is acute hippocampal slices. In words: Ex vivo MTT tissue viability test on acute hippocampal slices treated with Aβ oligomers after oxygen-glucose deprivation. In kind it is cell-based, Wistar rats. Particulars: 4 h, Aβ oligomers 10 µM alone, untreated slices as control, mean ± SD, N = 4. From the text:
We have applied a rapid, reliable assay, which utilizes acute hippocampal slices for MTT measurements to test the short-term effect of toxic Aβ oligomers on the viability of the surviving cells in the tissue. Acute hippocampal brain slices can be maintained ex vivo only for a few hours, thus excluding the possibility of studying the long-term effects of neuroprotective compounds. Still, the combination of oxygen-glucose deprivation and treatment with Aβ oligomers makes this assay applicable on a short-term basis, which is otherwise impossible with convenient in vitro methods. The Aβ treatment combined with this short and mild oxygen-glucose deprivation provided a relevant ex vivo model for the aging brain and a standard MTT assay was used for the quantification of toxicity (Table S2). Treatment with Aβ oligomers in 10 µM concentration caused a significant decrease in tissue viability after 4 h (Figure 5, white column, 43.2 ± 1.6% of control). To test the neuroprotective effects of the compounds, slices were treated with Aβ in the presence of equimolar amounts of 1, 3–6, respectively. […]
Toxicity measurements were carried out using freshly prepared slices (N = 2 × 10 for one case) of the brains of 10 ± 1-week-old Wistar rats (4 animals, thickness of the brain slices: 400 µm). […] After the treatment, brain slice viability was measured using a specific MTT assay. […]
Background: Tetrazolium assays rely on reduction of a dye to a coloured formazan, in cell work by metabolically active cells.

The test system of assay [2] is SH-SY5Y neuroblastoma cells. It counts as cell-based, human. Particulars: 24 h, Aβ oligomers 10 µM alone, mean ± SEM, N = 4–8. The protocol:
Real-time cell impedance measurement assay (xCELLigence) was utilized to test the effects of Aβ and the protective effect of the compounds 1, 3–5 on SH-SY5Y neuroblastoma cells. Cells were treated with Aβ oligomers in the concentration of 10 µM either alone or together with compounds 1, 3–5, which were applied in two different concentrations (5 or 10 μM). The cell index was monitored continuously for 48 h. Figure 6 represents the viability readouts after 24 h and 48 h (Table S3). Aβ caused a significant reduction in the viability after 24 h (red column, 85.1 ± 2.6% of control) reflecting the effects of an elongated treatment. […]
Figure 6 Cell viability readouts based on impedance analysis after treatments at different time points: (A) 24 h (B) 48 h. […]
Differentiated SH-SY5Y cells were grown in Dulbecco’s Modified Eagle’s Medium (DMEM) and F12-Ham’s culture medium at a 1:1 ratio supplemented with 10% (v/v) fetal bovine serum (FBS), 1% (v/v) L-glutamine, and 50 µg/mL gentamicin. […] Cells were cultured for 5–7 days and monitored every 15 min until the end of experiments. […] The resulting data was analyzed using real-time cell analyzer software (RTCA, Roche, Basel, Switzerland) and exported to Excel.

On to “Aβ oligomers: oligomers of amyloid β (1–42) prepared from Ser26 depsipeptide iso-Aβ (1–42)”, for which the “tissue viability, Aβ oligomers alone” value in assay [1] is on record as 43.2 ± 1.6 % of control. In assay [2], the “viability, Aβ alone” value was 85.1 ± 2.6 % of control.
